Test results from patent US11977075B2, “Method of predicting personalized response to cancer treatment with immune checkpoint inhibitors, method of treating cancer, and kit therefor” (Rappaport Family Institute for Research in the Medical …, priority 2017, dated 2024).

Tests used:
[1] = test system: EMT6 murine breast carcinoma; assay: EMT6 primary breast tumor model, ICI combined with SB-3CT; assay type: in vivo, BALB/c mice; settings: combination with either anti-PD-1 or anti-PD-L1 vs anti-PD-1 or anti-PD-L1 monotherapy
Description: Control mice are injected with IgG antibody and vehicle (10% DMSO in normal saline). Mice receiving either anti-PD-1 or anti-PD-L1 monotherapies are also injected with vehicle (10% DMSO in normal saline). Mice receiving SB3-CT monotherapy are also injected with IgG control antibodies. Tumor growth and mouse survival are monitored. At endpoint (when tumors reach a size of ˜1500 mm^3), mice are sacrificed.

[2] = test system: cancer patients; settings: pooled data from clinical studies; cited from earlier work

Compound | increasing survival [1] | reducing tumor size [1] | duration of clinical response [2] | duration of clinical response, can last up to [2] | subset of patients in which the therapeutic effect is observed [2] [%]
O=S(=O)(CC1CS1)c1ccc(Oc2ccccc2)cc1 (centres unmarked) [SB-3CT, 2-(((4-phenoxyphenyl)sulfonyl)methyl)thiirane] | more effective | more effective | – | – | –
ipilimumab | – | – | around 3 years | up to 10 years | ~20
